Test system: MIA-PACA2 pancreatic cancer cell lines
Test: Cell proliferation assay, alternate assay conditions (DAPI fluorescence)
Assay type: cell-based
Conditions: Homo sapiens, MIA PaCa-2; * = tested at 10 μM, alternate conditions, MIA-PACA2
Method: Cell lines: Tumor-derived pancreatic cancer cell lines MIA-PACA2 were purchased from ATCC and grown in complete DMEM-High Glucose medium supplemented with penicillin (100 U/mL), streptomycin (100 μg/mL), and 10% heat-inactivated FBS at 37° C. in a humidified incubator with 5% CO2.
Method: Cells are plated at 4000 cells/well density in 96-wells plate. The next day tested small molecules are added to the cells in the final concentration of 10 μM in the presence of 0.3% DMSO and 10% FBS. After small molecules addition, cells are incubated for 4 days at 37° C. in a humidified incubator with 5% CO2. For IC50 value determination, serial dilutions of compounds were added to cells under the same conditions.
Assay: At the end of the incubation period, cell cultures are fixed with a 50-50 mixture (v/v) acetone-methanol for 10 minutes at −20° C., followed by rehydration in PBS for 10 minutes at room temperature. After rehydration, cells are stained with DAPI (1 μg/ml) in PBS for 10 minutes at room temperature, followed by 3 washes with PBS. After staining, DAPI fluorescence is recorded (358 nm excitation/461 nm emission) with the 96-well plate reader Molecular Devices Spectramax M3; degree of small mole-cule-dependent proliferation inhibition is calculated from raw data assuming No Serum cells value as 100%.

| Compound | inhibition at 10 µM [%] |
| --- | --- |
| COc1nc(-c2ccccn2)nc2c(-c3cccc(O)n3)csc12 | 76 to 100 |
| CCC(C)Nc1nc(-c2ccccn2)nc2sc(-c3ccncc3)c(-c3ccccc3)c12 (stereo not shown) | 51 to 75 |
| O=C(NCCc1ccncn1)c1csc2nc(-c3ccccn3)nc(N3CCOCC3)c12 [drawing 1796] | 1 to 25 |
| CC(C)c1nn(C)cc1-c1csc2c(O)nc(-c3ccccn3)nc12 [drawing 1797] | 76 to 100 |
| CN(C)CCOc1cccc(-c2csc3c(O)nc(-c4ccccn4)nc23)c1 [drawing 1798] | 76 to 100 |
| Oc1nc(-c2ccccn2)nc2c(-c3cc(CN4CCCC4)ccc3F)csc12 [drawing 1799] | 76 to 100 |
| N#Cc1cccc(-c2csc3c(O)nc(-c4ccccn4)nc23)c1 [drawing 1800] | 76 to 100 |
| Oc1nc(-c2ccccn2)nc2c(-c3cncnc3)csc12 [drawing 1801] | 0 |
| Cc1c(-c2csc3c(O)nc(-c4ccccn4)nc23)cnn1C [drawing 1802] | 76 to 100 |
| Cc1nn(C(C)C)cc1-c1csc2c(O)nc(-c3ccccn3)nc12 [drawing 1803] | 76 to 100 |
| Oc1nc(-c2ccccn2)nc2c(-c3cncc(C(F)F)c3)csc12 [drawing 1804] | 76 to 100 |
| COc1ccc(CCC(=O)Nc2nc(-c3ccccn3)nc3sccc23)cn1 [drawing 1805] | 76 to 100 |
| Cc1sc2c(O)nc(-c3ccccn3)nc2c1-c1ccncc1 [drawing 1806] | 76 to 100 |
| Cc1sc2c(O)nc(-c3ccccn3)nc2c1C(=O)N1CCN(c2ccccc2)CC1 [drawing 1807] | 76 to 100 |
| Cc1sc2c(O)nc(-c3ccccn3)nc2c1C(=O)N1CCN(c2ccccc2)CC1C (stereo not shown) [drawing 1808] | 76 to 100 |
| Cc1sc2c(O)nc(-c3ccccn3)nc2c1C(=O)N1CCN(Cc2cccc(O)c2)CC1 [drawing 1809] | 25 to 50 |
| COC(=O)c1c(C)sc2c(O)nc(-c3ccccn3)nc12 [drawing 1810] | 25 to 50 |
| Oc1nc(-c2ccccn2)nc2c(C3CCCCC3)csc12 [drawing 1811] | 76 to 100 |
| Oc1nc(-c2ccccn2)nc2c(C3CCCC3)csc12 [drawing 1812] | 76 to 100 |
| CC(C)Cc1csc2c(O)nc(-c3ccccn3)nc12 [drawing 1813] | 76 to 100 |
| COc1cnc(-c2cn(C)cn2)nc1O [drawing 1814] | 1 to 25 |
| COc1cnc(-c2nccn2C)nc1O [drawing 1815] | 51 to 75 |
| Nc1cccc(-c2csc3c(O)nc(-c4ccccn4)nc23)n1 [drawing 1816] | 76 to 100 |
| Cc1sc2c(O)nc(-c3ccccn3)nc2c1-c1ccccc1Cl [drawing 1817] | 76 to 100 |
| COc1cnc(-c2cnc[nH]2)nc1O [drawing 1818] | 0 |
